From patent US10294234B2, “HIV inhibitor compounds” (priority 2017, dated 2019) come the findings set out here.

Read-outs that look alike come from different tables or passages of the source.

A summary of the method of data set [1]: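 Compounds at 1 uM were incubated in duplicate with dog, rat or human liver microsomes (0.5 mg/mL protein) and an NADPH-regenerating system, sampled at 2, 12, 25, 45 and 65 minutes. Remaining parent was measured by LC/MS/MS, and Clint was calculated from the in vitro t1/2.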
Data set [2] deals with HIV-1 (IIIB) in MT-4 cells. Description: MT-4 HIV assay. It is filed as cell-based. The settings on record: Human immunodeficiency virus 1, MT4, 120 h; HIV-1 (IIIB), MT-4 cells, 5 days, Cell Titer Glo; read-out: EC50. An outline of the steps: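 MT-4 cells infected with HIV-1 IIIB (1:250 stock dilution) were incubated with 1:3 serially diluted compounds in RPMI with 10% FBS for 5 days at 37 °C. Cell Titer Glo luminescence was the readout. Plates included mock-infected wells, no-drug wells and 5 uM AZT controls.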
A general note: ATP-based viability assays read luminescence as a measure of living cells.

[3] abbreviates: human liver microsomes 0.5 mg/mL, 1 uM compound, NADPH.
The mark [4] stands for this setting: rat liver microsomes 0.5 mg/mL, 1 uM compound, NADPH.

Usually EC50 stands for the concentration needed to bring the measured effect to its halfway point. For the compound `COC(=O)N[C@H](C(=O)N[C@@H](Cc1ccc(C#Cc2ccc(-c3cn4c(n3)CN(C)C(=O)C4)cc2)cc1)[C@@H](O)CN(Cc1c(F)cc(-c2cnn(C(F)F)c2)cc1F)NC(=O)[C@@H](NC(=O)OC)C(C)(C)C(F)(F)F)C(C)(C)C(F)(F)F` [Example 69, Methyl ((5S,8S,9S,14S)-11-(4-(1-(difluoromethyl)-1H-pyrazol-4-yl)-2,6-difluorobenzyl)-16,16,16-trifluoro-9-hydroxy-15,15-dimethyl-8-(4-((4-(7-methyl-6-oxo-5,6,7,8-tetrahydroimidazo[1,2-a]pyrazin-2-yl)phenyl)ethynyl)benzyl)-3,6,13-trioxo-5-(1,1,1-trifluoro-2-methylpropan-2-yl)-2-oxa-4,7,11,12-tetraazahexadecan-14-yl)carbamate], the “Human Pred Cl.” value in data set [1] (setting [3]) is listed as less than 0.11 L/H/kg. Besides, the “Rat. Pred. Cl.” value in data set [1] (setting [4]) is less than 0.18 L/H/kg. For the same compound, the EC50 in data set [2] was determined as 3.24 nM.

With `COC(=O)N[C@H](C(=O)N[C@@H](Cc1ccc(C#Cc2ccc(N3CC4CCC(C3)N4C)nc2)cc1)[C@@H](O)CN(Cc1c(F)cc(-c2cnn(C(F)F)c2)cc1F)NC(=O)[C@@H](NC(=O)OC)C(C)(C)C(F)(F)F)C(C)(C)C(F)(F)F` [Example 168, Methyl ((5S,8S,9S,14S)-11-(4-(1-(difluoromethyl)-1H-pyrazol-4-yl)-2,6-difluorobenzyl)-16,16,16-trifluoro-9-hydroxy-15,15-dimethyl-8-(4-((6-(8-methyl-3,8-diazabicyclo[3.2.1]octan-3-yl)pyridin-3-yl)ethynyl)benzyl)-3,6,13-trioxo-5-(1,1,1-trifluoro-2-methylpropan-2-yl)-2-oxa-4,7,11,12-tetraazahexadecan-14-yl)carbamate], the “Human Pred Cl.” value in data set [1] (human, microsomes) amounted to 0.19 L/H/kg. Besides, the “Rat. Pred. Cl.” value in data set [1] (rat, microsomes) is 2.42 L/H/kg. Moreover, in data set [2], the EC50 is 5.48 nM.

As to `COC(=O)N[C@H](C(=O)N[C@@H](Cc1ccc(C#Cc2ccc(N3C[C@@H]4C[C@H]3CN4C3COC3)nc2)cc1)[C@@H](O)CN(Cc1c(F)cc(-c2ccn(C(F)F)n2)cc1F)NC(=O)[C@@H](NC(=O)OC)C(C)(C)C(F)(F)F)C(C)(C)C(F)(F)F` [Example 174, Methyl ((5S,8S,9S,14S)-11-(4-(1-(difluoromethyl)-1H-pyrazol-3-yl)-2,6-difluorobenzyl)-16,16,16-trifluoro-9-hydroxy-15,15-dimethyl-8-(4-((6-((1S,4S)-5-(oxetan-3-yl)-2,5-diazabicyclo[2.2.1]heptan-2-yl)pyridin-3-yl)ethynyl)benzyl)-3,6,13-trioxo-5-(1,1,1-trifluoro-2-methylpropan-2-yl)-2-oxa-4,7,11,12-tetraazahexadecan-14-yl)carbamate], the “Human Pred Cl.” value in data set [1] (setting [3]) is on record as 0.18 L/H/kg. Moreover, the “Rat. Pred. Cl.” value in data set [1] (setting [4]) is recorded as 0.69 L/H/kg. Besides, in data set [2], the EC50 was 2.33 nM.

For `COC(=O)N[C@H](C(=O)N[C@@H](Cc1ccc(C#Cc2cnc(N3CC4CCC(C3)N4C3COC3)nc2)cc1)[C@@H](O)CN(Cc1c(F)cc(-c2ccn(C(F)F)n2)cc1F)NC(=O)[C@@H](NC(=O)C1CC1)C(C)(C)C(F)(F)F)C(C)(C)C(F)(F)F` [Example 186, Methyl ((2S)-1-(((2S,3S)-4-(2-((S)-2-(cyclopropanecarboxamido)-4,4,4-trifluoro-3,3-dimethylbutanoyl)-1-(4-(1-(difluoromethyl)-1H-pyrazol-3-yl)-2,6-difluorobenzyl) hydrazinyl)-3-hydroxy-1-(4-((2-(8-(oxetan-3-yl)-3,8-diazabicyclo[3.2.1]octan-3-yl)pyrimidin-5-yl)ethynyl)phenyl)butan-2-yl)amino)-4,4,4-trifluoro-3,3-dimethyl-1-oxobutan-2-yl)carbamate], the “Human Pred Cl.” value in data set [1] (human, microsomes) is less than 0.11 L/H/kg. In data set [2], the EC50 is 4.74 nM.

On to `COC(=O)N[C@H](C(=O)NN(Cc1c(F)cc(-c2ccn(C(F)F)n2)cc1F)C[C@H](O)[C@H](Cc1ccc(-c2cnc(N3CC4CCC(C3)N4C3COC3)nc2)cc1)NC(=O)[C@@H](NC(=O)OC)C(C)(C)C(F)(F)F)C(C)(C)C` [Example 192, methyl ((5S,8S,9S,14S)-11-(4-(1-(difluoromethyl)-1H-pyrazol-3-yl)-2,6-difluorobenzyl)-9-hydroxy-15,15-dimethyl-8-(4-(2-(8-(oxetan-3-yl)-3,8-diazabicyclo[3.2.1]octan-3-yl)pyrimidin-5-yl)benzyl)-3,6,13-trioxo-5-(1,1,1-trifluoro-2-methylpropan-2-yl)-2-oxa-4,7,11,12-tetraazahexadecan-14-yl)carbamate], for which the “Dog. Pred. Cl.” value in data set [1] (microsomes) was 1.04 L/H/kg. For the same compound, in data set [1] (human, microsomes), the “Human Pred Cl.” value amounted to 0.22 L/H/kg. Further, the “Rat. Pred. Cl.” value in data set [1] (rat, microsomes) was 0.36 L/H/kg. Also, the EC50 in data set [2] came to 2.89 nM.

Consider `CC(C)([C@H](NC(=O)OC1CC1)C(=O)N[C@@H](Cc1ccc(-c2cnn(C(F)F)c2)cc1)[C@@H](O)CN(Cc1c(F)cc(-c2cnn(C(F)F)c2)cc1F)NC(=O)[C@@H](NC(=O)OC1CC1)C(C)(C)C(F)(F)F)C(F)(F)F` [Example 210, Cyclopropyl ((S)-1-(2-((2S,3S)-3-((S)-2-((cyclopropoxycarbonyl)amino)-4,4,4-trifluoro-3,3-dimethylbutanamido)-4-(4-(1-(difluoromethyl)-1H-pyrazol-4-yl)phenyl)-2-hydroxybutyl)-2-(4-(1-(difluoromethyl)-1H-pyrazol-4-yl)-2,6-difluorobenzyl)hydrazinyl)-4,4,4-trifluoro-3,3-dimethyl-1-oxobutan-2-yl)carbamate], for which the “Human Pred Cl.” value in data set [1] (setting [3]) is 0.18 L/H/kg. Moreover, in data set [1] (setting [4]), the “Rat. Pred. Cl.” value is reported as less than 0.18 L/H/kg. Further, in data set [2], the 50% effective concentration (EC50) stood at 15 nM.

Regarding `COC(=O)N[C@H](C(=O)N[C@@H](Cc1ccc(-c2cnc(N3CC4CCC(C3)N4C3COC3)nc2)cc1)[C@@H](O)CN(Cc1c(F)cc(-c2ccn(CC(F)F)n2)cc1F)NC(=O)[C@@H](NC(=O)OC)C(C)(C)C(F)(F)F)C(C)(C)C(F)(F)F` [Example 197, Methyl ((5S,8S,9S,14S)-11-(4-(1-(2,2-difluoroethyl)-1H-pyrazol-3-yl)-2,6-difluorobenzyl)-16,16,16-trifluoro-9-hydroxy-15,15-dimethyl-8-(4-(2-(8-(oxetan-3-yl)-3,8-diazabicyclo[3.2.1]octan-3-yl)pyrimidin-5-yl)benzyl)-3,6,13-trioxo-5-(1,1,1-trifluoro-2-methylpropan-2-yl)-2-oxa-4,7,11,12-tetraazahexadecan-14-yl)carbamate], the “Human Pred Cl.” value in data set [1] (human, microsomes) is given as less than 0.11 L/H/kg. For the same compound, the “Rat. Pred. Cl.” value in data set [1] (rat, microsomes) turned out to be 0.32 L/H/kg. The EC50 in data set [2] amounted to 2.61 nM.

In the case of `COC(=O)N[C@H](C(=O)N[C@@H](Cc1ccc(C#Cc2cnc(N3CC4CCC(C3)N4C3COC3)nc2)cc1)[C@@H](O)CN(Cc1c(F)cc(-c2ccn(C3CC3)n2)cc1F)NC(=O)[C@@H](NC(=O)OC)C(C)(C)C(F)(F)F)C(C)(C)C(F)(F)F` [Example 37, Methyl ((5S,8S,9S,14S)-11-(4-(1-cyclopropyl-1H-pyrazol-3-yl)-2,6-difluorobenzyl)-16,16,16-trifluoro-9-hydroxy-15,15-dimethyl-8-(4-((2-(8-(oxetan-3-yl)-3,8-diazabicyclo[3.2.1]octan-3-yl)pyrimidin-5-yl)ethynyl)benzyl)-3,6,13-trioxo-5-(1,1,1-trifluoro-2-methylpropan-2-yl)-2-oxa-4,7,11,12-tetraazahexadecan-14-yl)carbamate], the “Human Pred Cl.” value in data set [1] (human, microsomes) is on record as less than 0.11 L/H/kg. In addition, in data set [1] (rat, microsomes), the “Rat. Pred. Cl.” value is recorded as 0.32 L/H/kg. Also, the concentration for a half-maximal effect (EC50) in data set [2] worked out at 6.75 nM.

Turning to `COC(=O)N[C@H](C(=O)N[C@@H](Cc1ccc(C#Cc2ccc(N3CC4COCC(C3)N4C)nc2)cc1)[C@@H](O)CN(Cc1c(F)cc(-c2ccn(C3CC3)n2)cc1F)NC(=O)[C@@H](NC(=O)OC)C(C)(C)C(F)(F)F)C(C)(C)C(F)(F)F` [Example 35], the “Dog. Pred. Cl.” value in data set [1] (microsomes) is recorded as 1.74 L/H/kg. In addition, the “Human Pred Cl.” value in data set [1] (human, microsomes) is reported as less than 0.11 L/H/kg. In addition, the “Rat. Pred. Cl.” value in data set [1] (rat, microsomes) was found to be 2.1 L/H/kg. Moreover, the EC50 in data set [2] is 3.54 nM.

`COC(=O)N[C@H](C(=O)N[C@@H](Cc1ccc(C#Cc2ccc(N3CC4CCC(C3)N4C3COC3)nc2)cc1)[C@@H](O)CN(Cc1c(F)cc(-c2cc[nH]n2)cc1F)NC(=O)[C@@H](NC(=O)OC)C(C)(C)C(F)(F)F)C(C)(C)C(F)(F)F` [Example 126, Methyl ((5S,8S,9S,14S)-11-(2,6-difluoro-4-(1H-pyrazol-3-yl)benzyl)-16,16,16-trifluoro-9-hydroxy-15,15-dimethyl-8-(4-((6-(8-(oxetan-3-yl)-3,8-diazabicyclo[3.2.1]octan-3-yl)pyridin-3-yl)ethynyl)benzyl)-3,6,13-trioxo-5-(1,1,1-trifluoro-2-methylpropan-2-yl)-2-oxa-4,7,11,12-tetraazahexadecan-14-yl)carbamate]: the “Human Pred Cl.” value in data set [1] (human, microsomes) turned out to be 0.45 L/H/kg. Besides, the “Rat. Pred. Cl.” value in data set [1] (rat, microsomes) is given as less than 0.18 L/H/kg. For the same compound, in data set [2], the EC50 was 4.13 nM.

With `CC(C)([C@H](NC(=O)OC1COC1)C(=O)N[C@@H](Cc1ccc(C#Cc2cnc(N3CC4CCC(C3)N4C3COC3)nc2)cc1)[C@@H](O)CN(Cc1c(F)cc(-c2ccn(C(F)F)n2)cc1F)NC(=O)[C@@H](NC(=O)OC1COC1)C(C)(C)C(F)(F)F)C(F)(F)F` [Example 220, Oxetan-3-yl ((2S)-1-(2-(4-(1-(difluoromethyl)-1H-pyrazol-3-yl)-2,6-difluorobenzyl)-2-((2S,3S)-2-hydroxy-4-(4-((2-(8-(oxetan-3-yl)-3,8-diazabicyclo [3.2.1]octan-3-yl)pyrimidin-5-yl)ethynyl)phenyl)-3-((S)-4,4,4-trifluoro-3,3-dimethyl-2-(((oxetan-3-yloxy)carbonyl)amino)butanamido)butyl)hydrazinyl)-4,4,4-trifluoro-3,3-dimethyl-1-oxobutan-2-yl)carbamate], the “Dog. Pred. Cl.” value in data set [1] (microsomes) came out at 0.46 L/H/kg. The “Human Pred Cl.” value in data set [1] (human, microsomes) is less than 0.11 L/H/kg. Besides, the “Rat. Pred. Cl.” value in data set [1] (rat, microsomes) is 0.34 L/H/kg. The 50% effective concentration (EC50) in data set [2] worked out at 7.66 nM.
